Test results from US9253983B2, “Triazole compound and use thereof” (KUREHA CORPORATION, priority 2011, dated 2016).

Experiments:
Rhizoctonia solani = experiment: Test 1 for antifungal effect, plate medium: R.s; assay type: cell-based; conditions: PDA plate medium
Procedure: (§1) Compound (1-1a) or Compound (1-2a) was dissolved in dimethyl sulfoxide, and the resulting solution was added to a PDA medium (potato dextrose-agar medium) at about 60° C. The medium and the solution were mixed thoroughly in a conical flask, poured into a petri dish, and allowed to solidify. In this way, a plate medium containing Compound (1-1a) or Compound (1-2a) at a certain concentration was prepared.
(§2) Meanwhile, test microorganisms cultured on a plate medium in advance were cut out with the use of a cork borer 4 mm in diameter, and were inoculated onto the compound-containing plate medium. After the inoculation, the microorganisms were cultured at their optimum growth temperatures (for example, refer to LIST OF CULTURES 1996 microorganisms 10th edition, Institute for Fermentation (foundation)) for 1 day to 7 days, and their growth was determined by measuring the diameter of their flora. The extent of growth of the microorganisms on the compound-containing plate medium was compared with that of microorganisms on a plate medium where no compound was added, and mycelial growth inhibition rate was calculated by the following equation: R=100(dc−dt)/dc where R is mycelial growth inhibition rate (%), dc is the flora diameter in untreated plate, and dt is the flora diameter in plate treated with the compound.
(§3) A larger antifungal index indicates a better antifungal effect.

Cercospora beticola = experiment: Test 1 for antifungal effect, plate medium: C.b; assay type: cell-based; conditions: PDA plate medium
Procedure: as §1, §2, §3

rice Bakanae disease = experiment: Efficacy of seed treatment on rice Bakanae disease; assay type: in vivo, Gibberella fujikuroi; conditions: rice seed treatment 80 g ai/100 kg seeds, 20 days after sowing
Procedure: A pot experiment was performed to evaluate the effectiveness of the seed treatment in controlling rice Bakanae disease. Compound (1-1a), which was dissolved in DMSO to make up such a concentration that the seeds would be treated in treatment amount of 80 g ai/100 kg seeds, was applied in a vial to seeds of a rice plant infected with rice Bakanae disease, and thereafter 16 rice plant seeds were sowed in a 50-cm^2 pot. The pot was kept in a greenhouse with water supplied to its bottom. 20 days after the sowing, examination was conducted on the percentage of seedlings infected with […]. Then, protective values were calculated as were in Experiment Example 4.

Penicillium italicum = experiment: Test 2 for antifungal effect, plate medium: P.i; assay type: cell-based; conditions: PDA plate medium
Procedure: Compound (1-1b) or Compound (1-2b) was dissolved in dimethyl sulfoxide, and the resulting solution was added to a PDA medium (potato dextrose-agar medium) at about 60° C. The medium and the solution were mixed thoroughly in a conical flask, poured into a petri dish, and allowed to solidify. In this way, a plate medium containing Compound (1-1b) or Compound (1-2b) at a certain concentration was prepared.
Meanwhile, test microorganisms cultured on a plate medium in advance were cut out with the use of a cork borer 4 mm in diameter, and were inoculated onto the compound-containing plate medium. After the inoculation, the pathogens were cultured at their optimum growth temperatures (for example, refer to LIST OF CULTURES 1996 microorganisms 10th edition, Institute for Fermentation (foundation)) for 1 day to 7 days, and their growth was determined by measuring the diameter of their flora. The extent of growth of the pathogens on the compound-containing plate medium was compared with that of pathogens on a plate medium where no compound was added, and mycelial growth inhibition rate was calculated as in Experiment Example 10. Note that, in Experiment Example 11, controls used in the antifungal effect tests are Compound (1-1a) and Compound (1-2a) instead of Compound (1-1b) and Compound (1-2b), respectively.
The results were rated on a 1-to-5 scale as in Experiment Example 10.

rice plant = experiment: Necrosis (adverse effects) of seed treatment on rice plant seeds; assay type: in vivo; conditions: treatment amount 80 g ai/100 kg seeds, 20 days after sowing
Procedure: A pot experiment was performed to evaluate necrosis (adverse effects) caused by the seed treatment. Compound (1-1a) and Compound (1-2a), each which was dissolved in DMSO to make up such a concentration that the seeds would be treated in treatment amount of 2 g to 200 g ai/100 kg seeds, were each applied to wheat seeds in a vial, and thereafter 8 wheat seeds were sowed in an 80-cm^2 pot. The pot was kept in a greenhouse with water supplied to its bottom. 20 days after the sowing, an extent of necrosis (percentage of necrotic surface area) of wheat was evaluated. A necrosis index was derived from the percentage of the necrotic surface area, based on the criteria shown by Table 13. In Table 13, a smaller necrosis index indicates a lesser adverse effect of necrosis caused by the treatment with the use of a plant disease controlling agent.
A pot experiment was performed to evaluate necrosis (adverse effects) caused by the seed treatment. Compound (1-1a), which was dissolved in DMSO to make up such a concentration that the seeds would be treated in treatment amount of 80 g ai/100 kg seeds, was applied to rice plant seeds in a vial, and thereafter 16 rice plant seeds were sowed in a 50-cm^2 pot. […] 20 days after the sowing, an extent of necrosis (percentage of necrotic surface area) of rice plant was evaluated. A necrosis index was calculated as was in Experiment Example 6.

[1] = system: Pseudocercoporella herpotrichoides; experiment: Test 1 for antifungal effect, plate medium: P.h; assay type: cell-based; conditions: PDA plate medium
Procedure: as §1, §2, §3

[2] = system: Erysiphe graminis f. sp tritici; experiment: Controlling effect on wheat powdery mildew by foliage spray treatment (Tests 1 and 2); assay type: in vivo; conditions: foliage spray 12.5 mg/L, 1,000 L/ha
Excerpt: The suspension was sprayed at 1,000 L/ha to leaves of wheat plants (cultivar: NORIN No. 61) in their second leaf stage. The wheat plants had been grown in square plastic pots (6 cm×6 cm). After the suspension was left to dry, the plants were inoculated with Erysiphe graminis f. sp tritici taken from wheat plants infected with wheat powdery mildew, by sprinkling. 8 days and 11 days after the inoculation, the lesion degree of the wheat powdery mildew was examined in accordance with the criteria shown in Table 4. The protective values were found in the same way as in Experiment Example 2.
The suspension was sprayed at 1,000 L/ha to leaves of wheat plants (cultivar: NORIN No. 61) in their second leaf stage. The wheat plants had been grown in square plastic pots (6 cm×6 cm). After the leaves were air-dried, they were inoculated with Erysiphe graminis f. sp tritici taken from wheat plants infected with wheat powdery mildew, by sprinkling. 8 days after the inoculation, the lesion degree of the wheat powdery mildew was examined. The protective values were calculated as were in Experiment Example 1.

Compound	Antifungal index (mycelial growth inhibition rate) (Rhizoctonia solani; 0.16 mg/L)	Antifungal index (mycelial growth inhibition rate) (Rhizoctonia solani; 0.31 mg/L)	Antifungal index (mycelial growth inhibition rate) (Rhizoctonia solani; 0.63 mg/L)	Antifungal index (mycelial growth inhibition rate) (Rhizoctonia solani; 1.25 mg/L)	Antifungal index (mycelial growth inhibition rate) (Rhizoctonia solani; 2.50 mg/L)	Antifungal index (mycelial growth inhibition rate) (Cercospora beticola; 0.16 mg/L)	Antifungal index (mycelial growth inhibition rate) (Cercospora beticola; 0.31 mg/L)	Antifungal index (mycelial growth inhibition rate) (Cercospora beticola; 0.63 mg/L)	Antifungal index (mycelial growth inhibition rate) (Cercospora beticola; 1.25 mg/L)	Antifungal index (mycelial growth inhibition rate) (Cercospora beticola; 2.50 mg/L)	Protective value (%) (rice Bakanae disease)	Antifungal index (mycelial growth inhibition rate) (Penicillium italicum; 0.04 mg/L)	Antifungal index (mycelial growth inhibition rate) (Penicillium italicum; 0.08 mg/L)	Antifungal index (mycelial growth inhibition rate) (Penicillium italicum; 0.16 mg/L)	Antifungal index (mycelial growth inhibition rate) (Penicillium italicum; 0.31 mg/L)	Antifungal index (mycelial growth inhibition rate) (Penicillium italicum; 0.63 mg/L)	Antifungal index (mycelial growth inhibition rate) (Penicillium italicum; 1.25 mg/L)	Necrosis index (rice plant)	Antifungal index (mycelial growth inhibition rate) ([1]; 0.16 mg/L)	Antifungal index (mycelial growth inhibition rate) ([1]; 0.31 mg/L)	other results
CC1(CCl)CCC(Cc2ccc(Cl)cc2)C1(O)Cn1cncn1 (single isomer, unassigned) [Compound (1-1a), (1,2-cis, 1,5-cis)-5-(4-chlorobenzyl)-2-chloromethyl-2-methyl-1-(1H-1,2,4-triazole-1-ylmethyl)cyclopentanol]	2 (Less than 70% but not less than 60%)	2 (Less than 70% but not less than 60%)	2 (Less than 70% but not less than 60%)	2 (Less than 70% but not less than 60%)	3 (Less than 80% but not less than 70%)	4 (Less than 90% but not less than 80%)	5 (90% or greater)	5 (90% or greater)	5 (90% or greater)	5 (90% or greater)	100	1 (Less than 60%)	4 (Less than 90% but not less than 80%)	4 (Less than 90% but not less than 80%)	5 (90% or greater)	5 (90% or greater)	5 (90% or greater)	0 (Less than 1%)	1 (Less than 60%)	5 (90% or greater)	Antifungal index (mycelial growth inhibition rate) ([1]; 0.63 mg/L): 5 (90% or greater); Antifungal index (mycelial growth inhibition rate) ([1]; 1.25 mg/L): 5 (90% or greater); Antifungal index (mycelial growth inhibition rate) ([1]; 2.50 mg/L): 5 (90% or greater); Protective value (%) (8 days after treatment) [2]: 96%; Protective value (%) (11 days after treatment) [2]: 84%
CC1(CCl)CCC(Cc2ccc(Cl)cc2)C1(O)Cn1cncn1 (single isomer, unassigned) [Compound (1-1b), (1,2-cis, 1,5-cis)-5-(4-chlorobenzyl)-2-chloromethyl-2-methyl-1-(1H-1,2,4-triazole-1-ylmethyl)cyclopentanol]	1 (Less than 60%)	1 (Less than 60%)	2 (Less than 70% but not less than 60%)	2 (Less than 70% but not less than 60%)	2 (Less than 70% but not less than 60%)	3 (Less than 80% but not less than 70%)	4 (Less than 90% but not less than 80%)	5 (90% or greater)	5 (90% or greater)	5 (90% or greater)	66	3 (Less than 80% but not less than 70%)	4 (Less than 90% but not less than 80%)	5 (90% or greater)	5 (90% or greater)	5 (90% or greater)	5 (90% or greater)	2 (Less than 20% but not less than 5%)	1 (Less than 60%)	1 (Less than 60%)	Antifungal index (mycelial growth inhibition rate) ([1]; 0.63 mg/L): 2 (Less than 70% but not less than 60%); Antifungal index (mycelial growth inhibition rate) ([1]; 1.25 mg/L): 3 (Less than 80% but not less than 70%); Antifungal index (mycelial growth inhibition rate) ([1]; 2.50 mg/L): 4 (Less than 90% but not less than 80%); Protective value (%) (8 days after treatment) [2]: 71%; Protective value (%) (11 days after treatment) [2]: 58%
CC1(CCl)CCC(Cc2ccc(F)cc2)C1(O)Cn1cncn1 (single isomer, unassigned) [Compound (1-2a), (1,2-cis, 1,5-cis)-5-(4-fluorobenzyl)-2-chloromethyl-2-methyl-1-(1H-1,2,4-triazole-1-ylmethyl)cyclopentanol]												1 (Less than 60%)	1 (Less than 60%)	3 (Less than 80% but not less than 70%)	4 (Less than 90% but not less than 80%)	5 (90% or greater)	5 (90% or greater)				
CC1(CCl)CCC(Cc2ccc(F)cc2)C1(O)Cn1cncn1 (single isomer, unassigned) [Compound (1-2b), (1,2-cis, 1,5-cis)-5-(4-fluorobenzyl)-2-chloromethyl-2-methyl-1-(1H-1,2,4-triazole-1-ylmethyl)cyclopentanol]												1 (Less than 60%)	4 (Less than 90% but not less than 80%)	5 (90% or greater)	5 (90% or greater)	5 (90% or greater)	5 (90% or greater)				
